{"source": "patent US7868015B2", "about": "“Phosphodiesesterase 4 inhibitors for the treatment of a cognitive deficit” (Cold Spring Harbor Laboratory, priority 2000, dated 2011)", "key": {"[1]": {"system": "CRE-luciferase reporter gene in human neuroblastoma cells", "assay": "CRE-luciferase reporter gene assay, forskolin-stimulated human neuroblastoma cells", "type": "cell-based", "conditions": "for effect on CRE-luciferase expression: FIG. 2, in words; for increase of forskolin-induced CRE-luciferase expression above forskolin alone: drug for two hours before suboptimal dose of forskolin, assayed 4 hours after forskolin stimulation (FIG. 2A)", "from_the_text": "FIG. 2A is a bar graph representation depicting results showing that the PDE4 inhibitors rolipram and HT0712 enhance forskolin-induced gene expression in human neuroblastoma cells. Relative light units (RLU) emitted from luciferase were quantified in human neuroblastoma cells stably transfected with a CRE-luciferase reporter gene and exposed to vehicle alone or drug (HT0712 or rolipram) for two hours before stimulation by a suboptimal dose of forskolin.\nA high-throughput drug screen was accomplished using human neuroblastoma cells, which were stably transfected with a luciferase reporter gene driven by a CRE (cAMP response element) promoter (a drug screen for enhancers of CREB function) (Scott, R. et al., J. Mol. Neurosci., 19:171-177 (2002)). Cells were exposed to drug for two hours and then stimulated with a suboptimal dose of forskolin for another four hours. […] Among the dozens of confirmed hits for several molecular targets identified from this screen, inhibitors of PDE4 were numerous."}, "CBP^+/− mutant mice": {"system": "CBP^+/− mutant mice", "assay": "Object recognition task, long-term memory in CBP+/− mutant mice", "type": "in vivo", "conditions": "for 24 hour memory retention versus vehicle-alone group: 3.5 minute training (FIG. 6); for memory retention, drug-treated CBP+/− mutants versus drug-treated wildtype mice / 24 hour memory retention (Discrimination Index) versus vehicle-injected mutants: 0.1 mg/kg i.p. 20 minutes before 15 minute training, tested 24 hours later (FIG. 4); for 24 hour memory retention (Discrimination Index) versus vehicle-injected mutants: p<0.05", "from_the_text": "(§1) Generation of CBP^+/- mice was described by Oike et al. (Human Molecular Genetics, 8:387-396 (1999)). […] For these studies, animals were generated by crossing CBP^+/- mice to C57BL/6 females (Jackson laboratory). The mice were genotyped with a PCR protocol as described previously (Oike, Y. et al., Human Molecular Genetics, 8:387-396 (1999)). Age-(12 to 14 weeks old by the time of handling) and gender-matched mutant mice and wildtype littermates were used for all experiments. Mice were handled for 3-5 minutes for 5 days. […] The first set was used for experiments summarized in FIGS. 3 and 4 (n=10 per genotype). The second set was used for the experiment summarized in FIG. 5 (wildtype mice, n=20). For each experiment, the same set of animals was used repeatedly with different (new) sets of objects for each repetition. […] (iii) each experimental condition was replicated 2-4 independent times, and replicate days were added to generate final number of subjects. Five-to-eight sessions were performed on each set of mice. Each mouse was trained and tested no more than once per week and with a one-week interval between testing. In experiments with drug-injections (see below), vehicle-injected mice and high/low-dose-injected mice, were counterbalanced. In each experiment, the experimenter was unaware (blind) to the treatment of the subjects during training and testing. […] Mice were presented with two objects, one of which was used during training, and thus was 'familiar' and the other of which was novel (e.g. a small pyramid-shape object). The test objects were divided into ten sets of two “training” plus on “testing” objects, and a new set of objects was used for each training session. After each experimental subject, the apparatus and the objects were cleaned with 90% ethanol, dried and ventilated for a few minutes. […] In addition, vehicle- and drug-injected mice were counterbalanced from experiment to experiment. Such design allowed at least two weeks wash-out time between repeated usages of high doses. […] The experiments were videotaped via an overhead video camera system. Types were reviewed by a blinded observer and the following behavioral parameters were determined: time of exploration of an each object; the total time of exploration of the objects; number of approaches to the objects; and time (latency) to first approach to an object. The discrimination index was determined as described previously (Ennaceur, A. & Aggleton, J. P., Behav. Brain Res., 88:181-193 (1997)). The data were analyzed by Student's unpaired t test using statistical software package ([…] Institute, Inc). All values in the text and figure legends are expressed as mean±SEM."}, "[2]": {"system": "somatostatin, an endogenous cAMP-responsive gene, in human neuroblastoma cells", "assay": "Real-time PCR of somatostatin expression, forskolin-stimulated human neuroblastoma cells", "type": "cell-based", "conditions": "for effect on expression of CRE-dependent endogenous gene somatostatin: FIG. 2, in words; for increase in forskolin-induced expression of somatostatin: real-time PCR, ΔCt above vehicle alone (FIG. 2B)", "from_the_text": "FIG. 2B is a bar graph representation depicting results showing that the PDE4 inhibitors rolipram and HT0712 enhance forskolin-induced gene expression in human neuroblastoma cells. Real-time PCR was used to quantify expression of somatostatin, an endogenous cAMP-responsive gene. Expression levels induced by forskolin or by forskolin+drug are quantified as differences in threshold cycle number (ΔCt) above vehicle alone control groups."}, "[3]": {"assay": "Half-life (wash-out consideration)", "conditions": "mouse, in vivo", "experimental": "HT0712 was administered intraperitoneally (i.p.) at doses: 0.001 mg/kg; 0.005 mg/kg; 0.01 mg/kg; 0.05 mg/kg; 0.1 mg/kg, 0.15 mg/kg and 0.2 mg/kg. Rolipram (Sigma) was administered i.p. at dose 0.1 mg/kg. Drug compounds were injected with one week interval to allow sufficient wash-out time (the half-life for HT0712 and Rolipram <3 hours). In addition, vehicle- and drug-injected mice were counterbalanced from experiment to experiment. Such design allowed at least two weeks wash-out time between repeated usages of high doses."}, "normal, young adult mice": {"system": "normal, young adult mice", "conditions": "delivered directly to the hippocampus, intraventricularly or intraperitoneally (Scott et al. 2002); cited from earlier work"}, "wildtype mice": {"system": "wildtype mice", "assay": "Object recognition task, long-term memory in wildtype mice", "type": "in vivo", "conditions": "for 24 hour memory retention versus vehicle-alone group: 3.5 minute training (FIG. 6)", "from_the_text": "as §1"}, "aged rats": {"system": "aged rats", "conditions": "Barad et al. 1998; cited from earlier work"}, "[4]": {"conditions": "i.p., 3.5 minute training, 24-hour memory (FIG. 6)"}}, "note": "“Also recorded” adds a separate entry of the source.", "data": [{"smiles": "COc1ccc([C@H]2CNC(=O)[C@H](Cc3cccc(C)c3)C2)cc1OC1CCCC1", "note": "[HT0712, (3S,5S)-5-(3-cyclopentyloxy-4-methoxy-phenyl)-3-(3-methyl-benzyl)-piperidin-2-one]", "values": [{"measurement": "effect on CRE-luciferase expression", "setting": "[1]", "value": "robust effects"}, {"measurement": "increase of forskolin-induced CRE-luciferase expression above forskolin alone", "setting": "[1]", "value": 1.9, "unit": "fold"}, {"measurement": "24 hour memory retention versus vehicle-alone group", "setting": "CBP^+/− mutant mice; 0.05 mg/kg i.p., p=0.79", "value": "did not; also recorded: failed to enhance memory"}, {"measurement": "memory retention, drug-treated CBP+/− mutants versus drug-treated wildtype mice", "setting": "CBP^+/− mutant mice", "value": "did not differ significantly"}, {"measurement": "24 hour memory retention (Discrimination Index) versus vehicle-injected mutants", "setting": "CBP^+/− mutant mice", "value": "restored 24-hour memory; also recorded: significantly higher"}, {"measurement": "24 hour memory retention versus vehicle-alone group", "setting": "CBP^+/− mutant mice; 0.10 mg/kg i.p., p<0.0001", "value": "higher"}, {"measurement": "24 hour memory retention versus vehicle-alone group", "setting": "CBP^+/− mutant mice; 0.15 mg/kg i.p., p<0.0001", "value": "higher"}, {"measurement": "24 hour memory retention versus vehicle-alone group", "setting": "CBP^+/− mutant mice; 0.2 mg/kg i.p., p<0.0001", "value": "higher"}, {"measurement": "dose at which memory enhancement was first seen (initial effective dose)", "setting": "CBP^+/− mutant mice; [4]", "value": 0.10, "unit": "mg/kg"}, {"measurement": "peak effective dose", "setting": "CBP^+/− mutant mice; [4]", "value": 0.15, "unit": "mg/kg"}, {"measurement": "effect on expression of CRE-dependent endogenous gene somatostatin", "setting": "[2]", "value": "robust effects"}, {"measurement": "increase in forskolin-induced expression of somatostatin", "setting": "[2]", "value": 4.6, "unit": "fold"}, {"measurement": "half-life", "setting": "[3]", "value": "< 3", "unit": "h"}, {"measurement": "long-term memory formation after contextual fear conditioning", "setting": "normal, young adult mice", "value": "enhanced"}, {"measurement": "24 hour memory retention versus vehicle alone", "setting": "wildtype mice; 0.05 mg/kg i.p. 20 min before 3.5 minute training (FIG. 5), p<0.05", "value": "significantly increased; also recorded: significantly higher"}, {"measurement": "24 hour memory retention versus vehicle-alone group", "setting": "wildtype mice; 0.05 mg/kg i.p., p<0.005", "value": "significant enhancement; also recorded: higher"}, {"measurement": "24 hour memory retention versus vehicle alone", "setting": "wildtype mice; 0.10 mg/kg i.p. 20 min before 3.5 minute training (FIG. 5), p<0.0001", "value": "significantly increased; also recorded: significantly higher"}, {"measurement": "24 hour memory retention versus vehicle-alone group", "setting": "wildtype mice; 0.10 mg/kg i.p., p<0.0001", "value": "higher"}, {"measurement": "24 hour memory retention versus vehicle alone", "setting": "wildtype mice; 0.15 mg/kg i.p. 20 min before 3.5 minute training (FIG. 5), p<0.001", "value": "significantly increased; also recorded: significantly higher"}, {"measurement": "24 hour memory retention versus vehicle-alone group", "setting": "wildtype mice; 0.15 mg/kg i.p., p<0.005", "value": "higher"}, {"measurement": "24 hour memory retention versus vehicle-alone group", "setting": "wildtype mice; 0.2 mg/kg i.p., p<0.005", "value": "higher"}, {"measurement": "24 hour memory retention versus vehicle alone", "setting": "wildtype mice; 0.50 mg/kg i.p., 3.5 minute training (FIG. 5)", "value": "failed to produce any memory enhancement"}, {"measurement": "24 hour memory retention versus vehicle alone", "setting": "wildtype mice; below 0.05 mg/kg i.p., 3.5 minute training (FIG. 5)", "value": "failed to produce any memory enhancement"}, {"measurement": "peak effective dose", "setting": "wildtype mice; [4]", "value": 0.10, "unit": "mg/kg"}]}, {"smiles": "COc1ccc(C2CNC(=O)C2)cc1OC1CCCC1", "note": "(stereo not drawn) [rolipram, reference compound]", "values": [{"measurement": "effect on CRE-luciferase expression", "setting": "[1]", "value": "robust effects"}, {"measurement": "increase of forskolin-induced CRE-luciferase expression above forskolin alone", "setting": "[1]", "value": 1.9, "unit": "fold"}, {"measurement": "memory retention, drug-treated CBP+/− mutants versus drug-treated wildtype mice", "setting": "CBP^+/− mutant mice", "value": "did not differ significantly"}, {"measurement": "24 hour memory retention (Discrimination Index) versus vehicle-injected mutants", "setting": "CBP^+/− mutant mice", "value": "restored 24-hour memory; also recorded: significantly higher"}, {"measurement": "effect on expression of CRE-dependent endogenous gene somatostatin", "setting": "[2]", "value": "robust effects"}, {"measurement": "increase in forskolin-induced expression of somatostatin", "setting": "[2]", "value": 2.3, "unit": "fold"}, {"measurement": "age-dependent loss of hippocampal-dependent memory and cellular long-term potentiation", "setting": "aged rats", "value": "ameliorates"}, {"measurement": "half-life", "setting": "[3]", "value": "< 3", "unit": "h"}, {"measurement": "long-term memory formation after contextual fear conditioning", "setting": "normal, young adult mice", "value": "enhanced"}]}]}
